In patent US20250179066A1, “ZWITTERIONIC ANTIBACTERIAL COMPOUNDS” (Hoffmann-La Roche Inc., priority 2022, published 2025):
Counter-ions that a name gives are not always drawn.

Test system: Acinetobacter baumannii ATCC17961
Assay: Antimicrobial susceptibility testing: 90% growth inhibitory concentration (IC90) determination
Assay type: cell-based
Details: 90% growth inhibitory concentration against Acinetobacter baumannii ATCC17961, Iso-Sensitest broth, OD 600 nm over 16 h; read-out: ATCC 17961 IC90
Description: The in vitro antimicrobial activity of the compounds was determined according to the following procedure: The assay used a 10-points Iso-Sensitest broth medium to measure quantitatively the in vitro activity of the compounds against Acinetobacter baumannii ATCC17961. Stock compounds in DMSO were serially twofold diluted (e.g. range from 10 to 0.0195 μM final concentration) in 384 wells microtiter plates and inoculated with 49 μL the bacterial suspension in Iso-Sensitest medium to have a final cell concentration of ˜5×10^(5) CFU/mL in a final volume/well of 50 μL/well. Microtiter plates were incubated at 35±2° C. Bacterial cell growth was determined with the measurement of optical density at λ=600 nm each min over a time course of 16 h. Growth inhibition was calculated during the logarithmic growth of the bacterial cells with determination of the concentration inhibiting 50% (IC50) and 90% (IC90) of the growth. Table 1 provides the 90% growth inhibitory concentrations (IC90) in micromoles per liter of the compounds of present invention obtained against the strain Acinetobacter baumannii ATCC17961.

| SMILES | IC90 [µM] |
| --- | --- |
| Cn1c(-c2cn(-c3ccc(N)cn3)nc2C(F)(F)F)cnc1C(=O)Nc1ccc(C(=O)N2CCN(C(=O)CCC[N+](CCCCN)(CCCCN)CC(=O)O)CC2)c(Cl)c1 [Example 20, bis(4-aminobutyl)-[4-[4-[4-[[5-[1-(5-amino-2-pyridyl)-3-(trifluoromethyl)pyrazol-4-yl]-1-methyl-imidazole-2-carbonyl]amino]-2-chloro-benzoyl]piperazino]-4-keto-butyl]-(carboxymethyl)ammonium. 1:1 2,2,2-trifluoroacetic acid. 1:1 2,2,2-trifluoroacetate] | 0.3 |

Same assay, conditions: Acinetobacter baumannii, ATCC17961, 16 h, 90% growth inhibitory concentration against Acinetobacter baumannii ATCC17961, Iso-Sensitest broth, OD 600 nm over 16 h; read-out: ATCC 17961 IC90

| SMILES | IC90 [µM] |
| --- | --- |
| Cn1c(-c2cn(-c3ccc(NCCCN)cn3)nc2C(F)(F)F)cnc1C(=O)Nc1ccc(C(=O)N2CCN(C(=O)[C@H]3CC[N@+](CC(=O)O)(CC4CNC4)CC3)CC2)c(Cl)c1 [Example 15, cis-2-[4-[4-[4-[[5-[1-[5-(3-aminopropylamino)-2-pyridyl]-3-(trifluoromethyl)pyrazol-4-yl]-1-methyl-imidazole-2-carbonyl]amino]-2-chloro-benzoyl]piperazine-1-carbonyl]-1-(azetidin-3-ylmethyl)piperidin-1-ium-1-yl]acetic acid. 1:1 2,2,2-trifluoroacetic acid. 1:1 2,2,2-trifluoroacetate] | 0.21 |
| Cn1c(-c2cn(-c3ccc(N)cc3F)nc2C(F)(F)F)cnc1C(=O)Nc1ccc(C(=O)N2CCN(C(=O)[C@H]3CC[N@+](CC(=O)O)(CC4CNC4)CC3)CC2)c(Cl)c1 [Example 16, cis-2-[4-[4-[4-[[5-[1-(4-amino-2-fluoro-phenyl)-3-(trifluoromethyl)pyrazol-4-yl]-1-methyl-imidazole-2-carbonyl]amino]-2-chloro-benzoyl]piperazine-1-carbonyl]-1-(azetidin-3-ylmethyl)piperidin-1-ium-1-yl]acetic acid. 1:1 2,2,2-trifluoroacetate] | 0.21 |
| Cn1c(-c2cn(-c3ccc(N)cc3F)nc2C(F)(F)F)cnc1C(=O)Nc1ccc(C(=O)N2CCN(C(=O)C3CC[N+](CC(=O)O)(CC4CNC4)CC3)CC2)c(Cl)c1 (stereo not drawn) [Example 17, 2-[4-[4-[4-[[5-[1-(4-amino-2-fluoro-phenyl)-3-(trifluoromethyl)pyrazol-4-yl]-1-methyl-imidazole-2-carbonyl]amino]-2-chloro-benzoyl]piperazine-1-carbonyl]-1-(azetidin-3-ylmethyl)piperidin-1-ium-1-yl]acetic acid. 1:1 2,2,2-trifluoroacetate] | 0.24 |
| Cn1c(-c2cn(-c3ccc4[nH]ccc4n3)nc2C(F)(F)F)cnc1C(=O)Nc1ccc(C(=O)N2CCN(C(=O)C3CC[N+](CC(=O)O)(CC4CNC4)CC3)CC2)c(Cl)c1 (stereo not drawn) [Example 18, 2-[1-(azetidin-3-ylmethyl)-4-[4-[2-chloro-4-[[1-methyl-5-[1-(1H-pyrrolo[3,2-b]pyridin-5-yl)-3-(trifluoromethyl)pyrazol-4-yl]imidazole-2-carbonyl]amino]benzoyl]piperazine-1-carbonyl]piperidin-1-ium-1-yl]acetic acid. 1:1 formate] | 0.26 |
| C[C@H](N)CNc1ccc(-n2cc(-c3cnc(C(=O)Nc4ccc(C(=O)N5CCN(C(=O)C6CC[N+](CC(=O)O)(CC7CNC7)CC6)CC5)c(Cl)c4)n3C)c(C(F)(F)F)n2)nc1 (stereo partly drawn) [Example 19, 2-[4-[4-[4-[[5-[1-[5-[[(2S)-2-Aminopropyl]amino]-2-pyridyl]-3-(trifluoromethyl)pyrazol-4-yl]-1-methyl-imidazole-2-carbonyl]amino]-2-chloro-benzoyl]piperazine-1-carbonyl]-1-(azetidin-3-ylmethyl)piperidin-1-ium-1-yl]acetic Acid.1:1 formic Acid.1:1 formate] | 0.26 |
| Cn1c(-c2cn(-c3ccc(CN)cn3)nc2C(F)(F)F)cnc1C(=O)Nc1ccc(C(=O)N2CCN(C(=O)C3CC[N+](CC(=O)O)(CC4CNC4)CC3)CC2)c(Cl)c1 (stereo not drawn) [Example 21, 2-[4-[4-[4-[[5-[1-[5-(Aminomethyl)-2-pyridyl]-3-(trifluoromethyl)pyrazol-4-yl]-1-methyl-imidazole-2-carbonyl]amino]-2-chloro-benzoyl]piperazine-1-carbonyl]-1-(azetidin-3-ylmethyl)piperidin-1-ium-1-yl]acetic Acid.1:1 formic Acid.1:1 formate] | 0.32 |

Second part, the compound after the results:

| IC90 [µM] | SMILES |
| --- | --- |
| 0.33 | COc1ccc(-n2cc(-c3cnc(C(=O)Nc4ccc(C(=O)N5CCN(C(=O)C6CC[N+](CC(=O)O)(CC7CNC7)CC6)CC5)c(Cl)c4)n3C)c(C(F)(F)F)n2)nc1 (stereo not drawn) [Example 22, 2-[1-(azetidin-3-ylmethyl)-4-[4-[2-chloro-4-[[5-[1-(5-methoxy-2-pyridyl)-3-(trifluoromethyl)pyrazol-4-yl]-1-methyl-imidazole-2-carbonyl]amino]benzoyl]piperazine-1-carbonyl]piperidin-1-ium-1-yl]acetic acid. 1:1 formate] |
| 0.34 | Cn1c(-c2cn(-c3ccc(NCc4ccccn4)cn3)nc2C(F)(F)F)cnc1C(=O)Nc1ccc(C(=O)N2CCN(C(=O)C3CC[N+](CC(=O)O)(CC4CNC4)CC3)CC2)c(Cl)c1 (stereo not drawn) [Example 23, 2-[1-(azetidin-3-ylmethyl)-4-[4-[2-chloro-4-[[1-methyl-5-[1-[5-(2-pyridylmethylamino)-2-pyridyl]-3-(trifluoromethyl)pyrazol-4-yl]imidazole-2-carbonyl]amino]benzoyl]piperazine-1-carbonyl]piperidin-1-ium-1-yl]acetic acid. 1:1 2,2,2-trifluoroacetate] |
| 0.35 | Cn1c(-c2cn(-c3ccc(NCC4(N)CCCC4)cn3)nc2C(F)(F)F)cnc1C(=O)Nc1ccc(C(=O)N2CCN(C(=O)C3CC[N+](CC(=O)O)(CC4CNC4)CC3)CC2)c(Cl)c1 (stereo not drawn) [Example 24, 2-[4-[4-[4-[[5-[1-[5-[(1-aminocyclopentyl)methylamino]-2-pyridyl]-3-(trifluoromethyl)pyrazol-4-yl]-1-methyl-imindazole-2-carbonyl]amino]-2-chloro-benzoyl]piperazine-1-carbonyl]-1-(azetidin-3-ylmethyl)piperidin-1-ium-1-yl]acetic acid. 1:1 2,2,2-trifluoroacetic acid. 1:1 2,2,2-trifluoroacetate] |
| 0.35 | CNc1ccc(-n2cc(-c3cnc(C(=O)Nc4ccc(C(=O)N5CCN(C(=O)C6CC[N+](CC(=O)O)(CC7CNC7)CC6)CC5)c(Cl)c4)n3C)c(C(F)(F)F)n2)nc1 (stereo not drawn) [Example 25, 2-[1-(azetidin-3-ylmethyl)-4-[4-[2-chloro-4-[[1-methyl-5-[1-[5-(methylamino)-2-pyridyl]-3-(trifluoromethyl)pyrazol-4-yl]imidazole-2-carbonyl]amino]benzoyl]piperazine-1-carbonyl]piperidin-1-ium-1-yl]acetic acid. 1:1 formate] |
| 0.36 | Cn1c(-c2cn(-c3ccc(N4CCOCC4)cn3)nc2C(F)(F)F)cnc1C(=O)Nc1ccc(C(=O)N2CCN(C(=O)C3CC[N+](CC(=O)O)(CC4CNC4)CC3)CC2)c(Cl)c1 (stereo not drawn) [Example 26, 2-[1-(azetidin-3-ylmethyl)-4-[4-[2-chloro-4-[[1-methyl-5-[1-(5-morpholino-2-pyridyl)-3-(trifluoromethyl)pyrazol-4-yl]imidazole-2-carbonyl]amino]benzoyl]piperazine-1-carbonyl]piperidin-1-ium-1-yl]acetic acid. 1:1 formate] |
| 0.36 | Cn1c(-c2cn(-c3ccc4[nH]ccc4n3)nc2C(F)(F)F)cnc1C(=O)Nc1ccc(C(=O)N2CCN(C(=O)[C@H]3CC[N@+](CC(=O)O)(CC4CNC4)CC3)CC2)c(Cl)c1 [Example 27, cis-2-[1-(azetidin-3-ylmethyl)-4-[4-[2-chloro-4-[[1-methyl-5-[1-(1H-pyrrolo[3,2-b]pyridin-5-yl)-3-(trifluoromethyl)pyrazol-4-yl]imidazole-2-carbonyl]amino]benzoyl]piperazine-1-carbonyl]piperidin-1-ium-1-yl]acetic acid. 1:1 2,2,2-trifluoroacetate] |
| 0.36 | Cn1c(-c2cn(-c3ccc(NC[C@@H]4CCCN4)cn3)nc2C(F)(F)F)cnc1C(=O)Nc1ccc(C(=O)N2CCN(C(=O)C3CC[N+](CC(=O)O)(CC4CNC4)CC3)CC2)c(Cl)c1 (stereo partly drawn) [Example 28, 2-[1-(azetidin-3-ylmethyl)-4-[4-[2-chloro-4-[[1-methyl-5-[1-[5-[[(2S)-pyrrolidin-2-yl]methylamino]-2-pyridyl]-3-(trifluoromethyl)pyrazol-4-yl]imidazole-2-carbonyl]amino]benzoyl]piperazine-1-carbonyl]piperidin-1-ium-1-yl]acetic acid. 1:1 2,2,2-trifluoroacetic acid. 1:1 2,2,2-trifluoroacetate] |
| 0.36 | CNc1ccc(-n2cc(-c3cnc(C(=O)Nc4ccc(C(=O)N5CCN(C(=O)[C@H]6CC[N@+](CC(=O)O)(CC7CNC7)CC6)CC5)c(Cl)c4)n3C)c(C(F)(F)F)n2)nc1 [Example 29, cis-2-[1-(azetidin-3-ylmethyl)-4-[4-[2-chloro-4-[[1-methyl-5-[1-[5-(methylamino)-2-pyridyl]-3-(trifluoromethyl)pyrazol-4-yl]imidazole-2-carbonyl]amino]benzoyl]piperazine-1-carbonyl]piperidin-1-ium-1-yl]acetic acid. 1:1 2,2,2-trifluoroacetate] |
